# Test results: US10864253B2, “Tissue protective peptides for preventing and treating diseases and disorders associated with tissue damage” (Araim Pharmaceuticals, Inc., priority 2016, dated 2020)
# Assays:
# [1] = test system: STZ-induced diabetic mice; test: STZ-induced diabetic neuropathy mouse model, paw thermal withdrawal latency; format: in vivo; conditions: STZ diabetic Swiss Webster mice, FIG. 3
# Description: To test a peptide in a diabetic neuropathy mouse model, male Swiss Webster mice are given a single injection of STZ (180 mg/kg i.p.) to induce insulin-deficient diabetes. Hyperglycemia is confirmed 3 days thereafter, and to ensure induction of sufficient neuropathy, only mice with blood glucose levels exceeding 15 mmol/l are used. […] The time from initiation of heating to paw withdrawal is recorded in 4 separate trials 5 minutes apart, with the median value of the last 3 trials used for each mouse. […]
# Briefly, male Swiss Webster mice were given a single injection of STZ (180 mg/kg i.p.) to induce insulin-deficient diabetes. […] The time from initiation of heating to paw withdrawal was recorded in 4 separate trials 5 minutes apart, with the median value of the last 3 trials used for each mouse.
# Akt = test: Activation of Akt phosphorylation in HUVECs (Western blot); format: cell-based; conditions: HUVECs treated with peptide; Western blot anti-phospho-Akt / anti-Akt; FIG. 2
# Description: In one assay for the activation of AKT by phosphorylation, HUVECs are purchased from Cell Applications (San Diego, Calif.) and grown in medium EGM-2 supplemented with 2% fetal calf serum (FCS) and penicillin/streptomycin (P/S) at 37° C. under air containing 5% CO2 in a humidified incubator. Preliminary experiments can be performed to determine the time course of the phosphorylation of Akt following stimulation by compounds that activated the tissue protective receptor. In some assays, the phosphorylation of Akt reaches a maximum 10 minutes following stimulation by compounds that activated the tissue protective receptor. After HUVECs are treated with tissue protective peptides or controls, cell lysates are prepared and Western blot is performed using anti-Akt and anti-phospho-Akt antibodies (Cell Signaling Technology, Danvers, Mass.). To perform the Western blot, cell lysates are subjected to SDS-PAGE, and transferred to nitrocellulose membranes (Amersham Biosciences, Piscataway, N.J.). The membrane is blocked for 1 h at room temperature with PBS containing 2% BSA and 0.05% Tween 20. The blots are incubated overnight at 4° C. or for 4 h at room temperature with a primary antibody against phospho-Akt, followed by incubation for 1 h with a secondary, horseradish peroxidase-conjugated antibody. Then the blots are reprobed with an antibody against Akt to confirm equal protein loading. […]
substance,measurement,setting,value
GDKA (Tissue protective peptide),thermal threshold (thermal withdrawal latency),"[1]; eye drops 50 microliters of 50 nanomolar solution to both eyes five days/week, after 12 weeks of therapy",normal thermal threshold
same,thermal threshold compared with PBS-treated diabetic mice,"[1]; eye drops 50 nanomolar, five days/week, 12 weeks",significantly lower
same,activation of AKT (phosphorylation of Akt),Akt,activated AKT
